# Data taken from patent publication US7199131B2, “Sulfonamide and sulfamide substituted imidazoquinolines” (3M Innovative Properties Company, priority 2001, dated 2007).
# Where a name gives a salt, the structure may show the parent alone.
# Columns and labels:
# interferon (α) = test: Cytokine Induction in Human Cells: interferon (α) secreted by PBMCs, ELISA; assay type: cell-based; details: incubated 18 to 24 hours, lowest concentration found to induce interferon
# Excerpt: (§1) An in vitro human blood cell system was used to assess cytokine induction by compounds of the invention. Activity is based on the measurement of interferon and tumor necrosis factor (α) (IFN and TNF, respectively) secreted into culture media as described by Testerman et. al. In “Cytokine Induction by the Immunomodulators Imiquimod and S-27609”, Journal of Leukocyte Biology, 58, 365–372 (September, 1995).
# (§2) Whole blood is collected by venipuncture into EDTA vacutainer tubes from healthy human donors. Peripheral blood mononuclear cells (PBMCs) are separated from whole blood by density gradient centrifugation using Histopaque®-1077 (Sigma Chemicals, St. Louis, Mo.). The PBMCs are suspended at 3–4×10^6 cells/mL in RPMI 1640 medium containing 10% fetal bovine serum, 2 mM L-glutamine and 1% penicillin/streptomycin solution (RPMI complete). The PBMC suspension is added to 48 well flat bottom sterile tissue culture plates (Costar, Cambridge, Mass. or Becton Dickinson Labware, Lincoln Park, N.J.) containing an equal volume of RPMI complete media containing test compound.
# (§3) The compounds are solubilized in dimethyl sulfoxide (DMSO). The DMSO concentration should not exceed a final concentration of 1% for addition to the culture wells.
# (§4) The solution of test compound is added at 60 μM to the first well containing RPMI complete and serial (three fold or ten fold) dilutions are made. The PBMC suspension is then added to the wells in an equal volume, bringing the test compound concentrations to the desired range. The final concentration of PBMC suspension is 1.5–2×10^6 cells/mL. The plates are covered with sterile plastic lids, mixed gently and then incubated for 18 to 24 hours at 37° C. in a 5% carbon dioxide atmosphere.
# (§5) Following incubation the plates are centrifuged for 5–10 minutes at 1000 rpm (˜200×g) at 4° C. The cell culture supernatant is removed with a sterile polypropylene pipette and transferred to sterile polypropylene tubes. Samples are maintained at −30 to −70° C. until analysis. The samples are analyzed for interferon (α) and tumor necrosis factor (α) by ELISA
# Interferon (α) concentration is determined by ELISA using a Human Multi-Species kit from PBL Biomedical Laboratories, New Brunswick, N.J.
# (§6) The table below lists the lowest concentration found to induce interferon and the lowest concentration found to induce tumor necrosis factor for each compound.
# [1] = test system: tumor necrosis factor (α); test: Cytokine Induction in Human Cells: tumor necrosis factor (α) secreted by PBMCs, ELISA; assay type: cell-based; details: incubated 18 to 24 hours, lowest concentration found to induce tumor necrosis factor
# Excerpt: as §1, §2, §3, §4, §5
# Tumor necrosis factor (α) (TNF) concentration is determined using ELISA kits available from Genzyme, Cambridge, Mass.; R&D Systems, Minneapolis, Minn.; or Pharmingen, San Diego, Calif.
# as §6
smiles,measurement,setting,value
CCCCc1nc2c(N)nc3ccccc3c2n1CCCCNS(=O)(=O)c1cccc(N)c1 (as salt: hydrochloride),melting point,,110.2 °C (dec.)
"CCCCc1nc2c(N)nc3ccccc3c2n1CCCCNS(=O)(=O)c1cccc([N+](=O)[O-])c1 (as salt: hydrochloride) [Example 7, N^1-[4-(4-Amino-2-butyl-1H-imidazo[4,5-c]quinolin-1-yl)butyl]-3-nitro-1-benzenesulfonamide Hydrochloride]",melting point,,176 to 178.2 °C
"CCCCc1nc2c(N)nc3ccccc3c2n1CCCCNS(=O)(=O)c1ccc([N+](=O)[O-])cc1 (as salt: hydrochloride) [Example 9, N^1-[4-(4-Amino-2-butyl-1H-imidazo[4,5-c]quinolin-1-yl)butyl]-4-nitro-1-benzenesulfonamide Hydrochloride]",melting point,,96 °C (dec.)
"CCCCc1nc2c(N)nc3ccccc3c2n1CCCCNS(=O)(=O)c1ccc(N)cc1 (as salt: hydrochloride) [Example 10, N^1-[4-(4-Amino-2-butyl-1H-imidazo[4,5-c]quinolin-1-yl)butyl]-4-amino-1-benzenesulfonamide Hydrochloride]",melting point,,203.1 to 205 °C
"Cc1nc2c(N)nc3c(c2n1CCCCNS(C)(=O)=O)CCCC3 (as salt: hydrochloride) [Example 263, N-[4-(4-amino-2-methyl-6,7,8,9-tetrahydro-1H-imidazo[4,5-c]quinolin-1-yl)butyl]methanesulfonamide hydrochloride]",melting point,,> 250 °C
"CCCCc1nc2c(N)nc3ccccc3c2n1CCCCNS(=O)(=O)c1cccc2c(N(C)C)cccc12 [Example 1, N^1-[4-(4-Amino-2-butyl-1H-imidazo[4,5-c]quinolin-1-yl)butyl]-5-(dimethylamino)-1-naphthalenesulfonamide]",melting point,,223 to 224 °C
"CCCCc1nc2c(N)nc3ccccc3c2n1CCCCNS(=O)(=O)c1cccs1 [Example 3, N^2-[4-(4-Amino-2-butyl-1H-imidazo[4,5-c]quinolin-1-yl)butyl]-2-thiophenesulfonamide]",melting point,,137.5 to 141.5 °C
"CCCCc1nc2c(N)nc3ccccc3c2n1CCCCNS(=O)(=O)Cc1ccccc1 [Example 4, N-[4-(4-Amino-2-butyl-1H-imidazo[4,5-c]quinolin-1-yl)butyl]phenylmethanesulfonamide]",melting point,,197 to 199.5 °C
"CCCCc1nc2c(N)nc3ccccc3c2n1CCCCNS(=O)(=O)c1ccccc1 [Example 5, N^1-[4-(4-Amino-2-butyl-1H-imidazo[4,5-c]quinolin-1-yl)butyl]-1-benzenesulfonamide]",melting point,,75.5 to 79 °C
"CCCCc1nc2c(N)nc3ccccc3c2n1CCCCNS(=O)(=O)c1cccc([N+](=O)[O-])c1 [Example 7, N^1-[4-(4-Amino-2-butyl-1H-imidazo[4,5-c]quinolin-1-yl)butyl]-3-nitro-1-benzenesulfonamide Hydrochloride]",minimal effective concentration,interferon (α); Hydrochloride,0.01 µM
same,Lowest Effective Concentration (μM) Tumor Necrosis Factor,[1]; Hydrochloride,"** (no induction was seen at any of the tested concentrations (0.12, 0.37, 1.11, 3.33, 10 and 30 μM))"
"CCCCc1nc2c(N)nc3ccccc3c2n1CCCCNS(=O)(=O)c1ccc([N+](=O)[O-])cc1 [Example 9, N^1-[4-(4-Amino-2-butyl-1H-imidazo[4,5-c]quinolin-1-yl)butyl]-4-nitro-1-benzenesulfonamide Hydrochloride]",minimal effective concentration,interferon (α); Hydrochloride,0.04 µM
same,Lowest Effective Concentration (μM) Tumor Necrosis Factor,[1]; Hydrochloride,"** (no induction was seen at any of the tested concentrations (0.12, 0.37, 1.11, 3.33, 10 and 30 μM))"
"CCCCc1nc2c(N)nc3ccccc3c2n1CCCCNS(=O)(=O)c1cccc2cnccc12 [Example 11, N^5-[4-(4-Amino-2-butyl-1H-imidazo[4,5-c]quinolin-1-yl)butyl]-5-isoquinolinesulfonamide]",melting point,,96 °C (dec.)
"COc1ccc(Cc2nc3c(N)nc4ccccc4c3n2CCCCNS(C)(=O)=O)cc1 [Example 12, N-[4-(4-Amino-2-(4-methoxybenzyl)-1H-imidazo[4,5-c]quinolin-1-yl]butyl]methanesulfonamide]",melting point,,78.1 to 79.5 °C
"COCCc1nc2c(N)nc3c(c2n1CCCCNS(=O)(=O)c1ccc(F)cc1)CCCC3 [Example 14, N^1-{4-[4-Amino-2-(2-methoxyethyl)-6,7,8,9-tetrahydro-1H-imidazo[4,5-c]quinolin-1-yl]butyl}-4-fluoro-1-benzenesulfonamide]",melting point,,191 to 193 °C
"Nc1nc2ccccc2c2c1nc(-c1ccccc1)n2CCCCNS(=O)(=O)c1ccc(F)cc1 [Example 15, N-[4-(4-Amino-2-phenyl-1H-imidazo[4,5-c]quinolin-1-yl)butyl]-4-fluoro-1-benzenesulfonamide]",melting point,,214 to 216 °C
"CS(=O)(=O)NCCCCn1c(-c2ccccc2)nc2c(N)nc3ccccc3c21 [Example 16, N-[4-(4-Amino-2-phenyl-1H-imidazo[4,5-c]quinolin-1-yl)butyl]methanesulfonamide]",melting point,,234 to 235 °C
"CCCCc1nc2c(N)nc3ccccc3c2n1CCNS(C)(=O)=O [Example 34, N-[2-(4-Amino-2-butyl-1H-imidazo[4,5-c]quinolin-1-yl)ethyl]methanesulfonamide Trifluoroacetate]",minimal effective concentration,interferon (α),0.04 µM
same,minimal effective concentration,[1],0.37 µM
"CCCCc1nc2c(N)nc3ccccc3c2n1CCNS(=O)(=O)C(F)(F)F [Example 35, N-[2-(4-Amino-2-butyl-1H-imidazo[4,5-c]quinolin-1-yl)ethyl]trifluoromethanesulfonamide Trifluoroacetate]",minimal effective concentration,interferon (α),1.11 µM
same,minimal effective concentration,[1],10 µM
"CS(=O)(=O)NCCCCn1cnc2c(N)nc3c(c21)CCCC3 [Example 72, N-[4-(4-Amino-6,7,8,9-tetrahydro-1H-imidazo[4,5-c]quinolin-1-yl)butyl]methanesulfonamide Trifluoroacetate]",minimal effective concentration,interferon (α),3.33 µM
same,Lowest Effective Concentration (μM) Tumor Necrosis Factor,[1],"** (no induction was seen at any of the tested concentrations (0.12, 0.37, 1.11, 3.33, 10 and 30 μM))"
CCCCc1nc2c(N)nc3ccccc3c2n1CCCCNS(=O)(=O)C[C@@]12CC[C@@H](CC1=O)C2(C)C [Example 89],minimal effective concentration,interferon (α); PBMC,0.001 µM
same,minimal effective concentration,[1]; PBMC,1 µM
"COCCc1nc2c(N)nc3c(c2n1CCCCNS(C)(=O)=O)CCCC3 [Example 214, N-[4-(4-Amino-6,7,8,9-tetrahydro-2-(2-methoxyethyl)-1H-imidazo[4,5-c]quinolin-1-yl)butyl]methanesulfonamide Trifluoroacetate]",minimal effective concentration,interferon (α),0.01 µM
same,minimal effective concentration,[1],10 µM
"CCc1nc2c(N)nc3ccccc3c2n1CCCCNS(C)(=O)=O [Example 236, N-[4-(4-amino-2-ethyl-1H-imidazo[4,5-c]quinolin-1-yl)butyl]methanesulfonamide]",minimal effective concentration,interferon (α); PBMC,0.01 µM
same,minimal effective concentration,[1]; PBMC,0.12 µM
"CCCCCc1nc2c(N)nc3ccccc3c2n1CCCCNS(C)(=O)=O [Example 250, N-[4-(4-amino-2-pentyl-1H-imidazo[4,5-c]quinolin-1-yl)butyl]methanesulfonamide]",minimal effective concentration,interferon (α); PBMC,0.01 µM
same,minimal effective concentration,[1]; PBMC,0.12 µM
"CCCCCc1nc2c(N)nc3ccccc3c2n1CCCCNS(=O)(=O)c1ccccc1 [Example 251, N-[4-(4-amino-2-pentyl-1H-imidazo[4,5-c]quinolin-1-yl)butyl]benzenesulfonamide]",minimal effective concentration,interferon (α); PBMC,0.12 µM
same,minimal effective concentration,[1]; PBMC,10 µM
"COCCc1nc2c(N)nc3ccccc3c2n1CCCCN1CCCS1(=O)=O [Example 266, 1-[4-(1,1-dioxidoisothiazolidin-2-yl)butyl]-2-(2-methoxyethyl)-1H-imidazo[4,5-c]quinolin-4-amine]",melting point,,156.4 to 157.7 °C
"CCS(=O)(=O)NCCCCn1c(C)nc2c(N)nc3ccccc3c21 [Example 269, N-[4-(4-amino-2-methyl-1H-imidazo[4,5-c]quinolin-1-yl)butyl]ethanesulfonamide]",melting point,,210.7 to 211.6 °C
"CS(=O)(=O)NCCCCn1c(CC2CC2)nc2c(N)nc3ccccc3c21 [Example 270, N-{4-[4-amino-2-(cyclopropylmethyl)-1H-imidazo[4,5-c]quinolin-1-yl]butyl}methanesulfonamide]",melting point,,199.7 to 200.7 °C
